Laboratory results as given in patent US11130974B2, “Hydroxylated fatty acid homopolymer and production method thereof” (KYOTO UNIVERSITY, priority 2017, dated 2021).

Target: T1, hydroxylated fatty acid dehydrogenase (CLA-DH) (Lactiplantibacillus plantarum, UniProt P0DX40)
T1 construct: made in house; host or cells: Escherichia coli (cell-free extract, not purified)
T1 sequence (P0DX40 1-286): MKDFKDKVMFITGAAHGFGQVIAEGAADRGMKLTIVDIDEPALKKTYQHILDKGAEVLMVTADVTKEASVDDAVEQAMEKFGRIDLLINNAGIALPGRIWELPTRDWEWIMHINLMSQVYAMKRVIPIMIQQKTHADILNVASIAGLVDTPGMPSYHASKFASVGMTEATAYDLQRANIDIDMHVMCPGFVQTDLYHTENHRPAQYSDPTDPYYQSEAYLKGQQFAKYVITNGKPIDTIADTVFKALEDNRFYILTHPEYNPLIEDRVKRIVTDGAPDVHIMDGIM
Assay: Comparison of oxidation stability: oxidation reaction with NAD+ in the presence of hydroxylated fatty acid dehydrogenase (CLA-DH), NADH measured at 340 nm
Format: biochemical
Details: 0.143 mg/mL substrate (0.48 mM HYA), 4 mM NAD+, CLA-DH-expressing Escherichia coli cell-free extract, 37° C., about 6 min
Procedure: The oxidation stability was compared between the reaction extract (homopolymer mixture) obtained in Example 1 and HYA. The oxidation reaction was performed using NAD^+ as an electron receptor in the presence of hydroxylated fatty acid dehydrogenase (CLA-DH) (S. Kishino et al., Polyunsaturated fatty acid saturation by gut lactic acid bacteria affecting host lipid composition. Proc. Natl. Acad. Sci. USA, 110(44), 17808-17813, 2013).
The reaction mixture (3 mL) contained CLA-DH-expressing Escherichia coli cell-free extract (150 μL, derived from 50 mg Escherichia coli wet cells) as hydroxylated fatty acid dehydrogenase, 4 mM NAD^+, 150 μL of ethanol, and 0.48 mM (0.143 mg/mL) HYA or equal amount (0.143 mg/mL) of a homopolymer mixture as a substrate, and the reaction was started by the addition of hydroxylated fatty acid dehydrogenase and performed at 37° C. for about 6 min. […] The progress of oxidation was quantified by measuring the change in absorbance at 340 nm of NADH amount produced by the oxidation of the substrate (the molecular absorption coefficient of NADH was 6.3×10^3 L·mol^−1 cm^−1).

Structure (SMILES): CCCCC/C=C\CC(O)CCCCCCCCC(=O)O (stereo not drawn) [HYA, 10-hydroxy-cis-12-octadecenoic acid]
- oxidation rate: 2.9 µM/min
